From patent US10106556B2, “Heterocyclic compound” (TAKEDA PHARMACEUTICAL COMPANY LIMITED, priority 2015, dated 2018)

Each compound was assayed against T1, His-hMAGL (recombinant polyhistidine tagged human MAGL protein) (Homo sapiens, UniProt Q99685) (assay: Measurement of MAGL inhibitory activity (arachidonic acid production from 2-arachidonylglycerol, RapidFire-mass spectrometry)). Details: MAGL inhibitory rate at 10 μM test compound; 60 min preincubation with His-hMAGL, 2-arachidonylglycerol substrate, 10 min reaction at room temperature.
T1 construct: made in house; host or cells: E. coli BL21(DE3)
T1 sequence (Q99685 1-303): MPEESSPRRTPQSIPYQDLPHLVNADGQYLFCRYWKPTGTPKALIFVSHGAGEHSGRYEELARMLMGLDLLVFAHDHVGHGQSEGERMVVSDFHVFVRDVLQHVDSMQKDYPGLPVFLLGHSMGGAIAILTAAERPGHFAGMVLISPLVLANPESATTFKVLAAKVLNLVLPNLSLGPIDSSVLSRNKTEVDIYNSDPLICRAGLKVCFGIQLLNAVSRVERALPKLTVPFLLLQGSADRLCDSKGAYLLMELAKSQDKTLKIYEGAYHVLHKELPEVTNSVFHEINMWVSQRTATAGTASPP
Assay type: biochemical
Summary of the method: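 Inhibition (%) was derived from arachidonic acid levels relative to enzyme-free and compound-free groups. Product was measured by online C4 solid-phase extraction and triple-quadrupole MS in negative SRM mode, corrected by arachidonic acid-d8 (3 μM in the acetonitrile added). Substrate was 2-arachidonylglycerol; enzyme was His-tagged recombinant human MAGL.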
Work on `CN1CC=C(c2ccc(OCC3CN(C(=O)c4cc5c(cc4F)OCC(=O)N5)C3)c(F)c2)CC1` [Example 245, 7-fluoro-6-((3-((2-fluoro-4-(1-methyl-1,2,3,6-tetrahydropyridin-4-yl)phenoxy)methyl)azetidin-1-yl)carbonyl)-2H-1,4-benzoxazin-3(4H)-one] yielded an inhibition at 10 µM of 96%.
With `Cn1cc(-c2ccc(OCC3CN(C(=O)c4cc5c(cc4F)OCC(=O)N5)C3)c(F)c2)cn1` [Example 246, 7-fluoro-6-((3-((2-fluoro-4-(1-methyl-1H-pyrazol-4-yl)phenoxy)methyl)azetidin-1-yl)carbonyl)-2H-1,4-benzoxazin-3(4H)-one] the inhibition at 10 µM was 96%.
`O=C1COc2cc(F)c(C(=O)N3CC(COc4ccc(-c5cnn(C(F)F)c5)cc4F)C3)cc2N1` [Example 247, 6-((3-((4-(1-(difluoromethyl)-1H-pyrazol-4-yl)-2-fluorophenoxy)methyl)azetidin-1-yl)carbonyl)-7-fluoro-2H-1,4-benzoxazin-3(4H)-one] showed an inhibition at 10 µM of 96%.
For `O=C1COc2cc(F)c(C(=O)N3CC(COc4ccc(-c5cnn(C6CC6)c5)cc4F)C3)cc2N1` [Example 248, 6-((3-((4-(1-cyclopropyl-1H-pyrazol-4-yl)-2-fluorophenoxy)methyl)azetidin-1-yl)carbonyl)-7-fluoro-2H-1,4-benzoxazin-3(4H)-one], the inhibition at 10 µM was 98%.
`Cc1nn(C)cc1-c1ccc(OCC2CN(C(=O)c3cc4c(cc3F)OCC(=O)N4)C2)c(F)c1` [Example 249, 6-((3-((4-(1,3-dimethyl-1H-pyrazol-4-yl)-2-fluorophenoxy)methyl)azetidin-1-yl)carbonyl)-7-fluoro-2H-1,4-benzoxazin-3(4H)-one] showed an inhibition at 10 µM of 101%.
Compound `Cc1c(-c2ccc(OCC3CN(C(=O)c4cc5c(cc4F)OCC(=O)N5)C3)c(F)c2)cnn1C` [Example 250, 6-((3-((4-(1,5-dimethyl-1H-pyrazol-4-yl)-2-fluorophenoxy)methyl)azetidin-1-yl)carbonyl)-7-fluoro-2H-1,4-benzoxazin-3(4H)-one] has an inhibition at 10 µM of 101%.
Work on `Cc1nn(C)c(C)c1-c1ccc(OCC2CN(C(=O)c3cc4c(cc3F)OCC(=O)N4)C2)c(F)c1` [Example 251, 7-fluoro-6-((3-((2-fluoro-4-(1,3,5-trimethyl-1H-pyrazol-4-yl)phenoxy)methyl)azetidin-1-yl)carbonyl)-2H-1,4-benzoxazin-3(4H)-one] yielded an inhibition at 10 µM of 100%.
In the case of `Cn1ccc(-c2ccc(OCC3CN(C(=O)c4cc5c(cc4F)OCC(=O)N5)C3)c(F)c2)n1` [Example 252, 7-fluoro-6-((3-((2-fluoro-4-(1-methyl-1H-pyrazol-3-yl)phenoxy)methyl)azetidin-1-yl)carbonyl)-2H-1,4-benzoxazin-3(4H)-one], the inhibition at 10 µM is reported as 99%.
For `Cc1cc(-c2ccc(OCC3CN(C(=O)c4cc5c(cc4F)OCC(=O)N5)C3)c(F)c2)nn1C` [Example 253, 6-((3-((4-(1,5-dimethyl-1H-pyrazol-3-yl)-2-fluorophenoxy)methyl)azetidin-1-yl)carbonyl)-7-fluoro-2H-1,4-benzoxazin-3(4H)-one], the inhibition at 10 µM was 102%.
`Cn1nccc1-c1ccc(OCC2CN(C(=O)c3cc4c(cc3F)OCC(=O)N4)C2)c(F)c1` [Example 254, 7-fluoro-6-((3-((2-fluoro-4-(1-methyl-1H-pyrazol-5-yl)phenoxy)methyl)azetidin-1-yl)carbonyl)-2H-1,4-benzoxazin-3(4H)-one] showed an inhibition at 10 µM of 102%.
`Cn1cccc1-c1ccc(OCC2CN(C(=O)c3cc4c(cc3F)OCC(=O)N4)C2)c(F)c1` [Example 255, 7-fluoro-6-((3-((2-fluoro-4-(1-methyl-1H-pyrrol-2-yl)phenoxy)methyl)azetidin-1-yl)carbonyl)-2H-1,4-benzoxazin-3(4H)-one] gave an inhibition at 10 µM of 102%.
Compound `O=C1COc2cc(F)c(C(=O)N3CC(COc4ccc(-c5ccc(C(F)(F)F)nc5)cc4F)C3)cc2N1` [Example 256, 7-fluoro-6-((3-((2-fluoro-4-(6-(trifluoromethyl)pyridin-3-yl)phenoxy)methyl)azetidin-1-yl)carbonyl)-2H-1,4-benzoxazin-3(4H)-one] has an inhibition at 10 µM of 98%.
`O=C1COc2cc(F)c(C(=O)N3CC(COc4ccc(-c5ccc6c(c5)CCO6)cc4F)C3)cc2N1` [Example 257, 6-((3-((4-(2,3-dihydro-1-benzofuran-5-yl)-2-fluorophenoxy)methyl)azetidin-1-yl)carbonyl)-7-fluoro-2H-1,4-benzoxazin-3(4H)-one] showed an inhibition at 10 µM of 99%.
`Cc1cc(-c2ccc(OCC3CN(C(=O)c4cc5c(cc4F)OCC(=O)N5)C3)c(F)c2)n(C)n1` [Example 259, 6-((3-((4-(1,3-dimethyl-1H-pyrazol-5-yl)-2-fluorophenoxy)methyl)azetidin-1-yl)carbonyl)-7-fluoro-2H-1,4-benzoxazin-3(4H)-one] was tested, and the inhibition at 10 µM was 100%.
`Cc1nc(C)c(-c2ccc(OCC3CN(C(=O)c4cc5c(cc4F)OCC(=O)N5)C3)c(F)c2)s1` [Example 260, 6-((3-((4-(2,4-dimethyl-1,3-thiazol-5-yl)-2-fluorophenoxy)methyl)azetidin-1-yl)carbonyl)-7-fluoro-2H-1,4-benzoxazin-3(4H)-one] showed an inhibition at 10 µM of 100%.
`O=C1COc2cc(F)c(C(=O)N3CC(COc4ccc(-c5cccnc5)cc4F)C3)cc2N1` [Example 261, 7-fluoro-6-((3-((2-fluoro-4-(pyridin-3-yl)phenoxy)methyl)azetidin-1-yl)carbonyl)-2H-1,4-benzoxazin-3(4H)-one] showed an inhibition at 10 µM of 98%.
`Cc1ncccc1-c1ccc(OCC2CN(C(=O)c3cc4c(cc3F)OCC(=O)N4)C2)c(F)c1` [Example 262, 7-fluoro-6-((3-((2-fluoro-4-(2-methylpyridin-3-yl)phenoxy)methyl)azetidin-1-yl)carbonyl)-2H-1,4-benzoxazin-3(4H)-one] gave an inhibition at 10 µM of 98%.
Compound `Cc1ccc(-c2ccc(OCC3CN(C(=O)c4cc5c(cc4F)OCC(=O)N5)C3)c(F)c2)cn1` [Example 263, 7-fluoro-6-((3-((2-fluoro-4-(6-methylpyridin-3-yl)phenoxy)methyl)azetidin-1-yl)carbonyl)-2H-1,4-benzoxazin-3(4H)-one] has an inhibition at 10 µM of 97%.
In the case of `Cc1cc(-c2ccc(OCC3CN(C(=O)c4cc5c(cc4F)OCC(=O)N5)C3)c(F)c2)ccn1` [Example 264, 7-fluoro-6-((3-((2-fluoro-4-(2-methylpyridin-4-yl)phenoxy)methyl)azetidin-1-yl)carbonyl)-2H-1,4-benzoxazin-3(4H)-one], the inhibition at 10 µM is reported as 101%.
In the case of `Cc1nn(C)cc1-c1cc(Cl)ccc1OCC1CN(C(=O)c2cc3c(cc2F)OCC(=O)N3)C1` [Example 265, 6-((3-((4-chloro-2-(1,3-dimethyl-1H-pyrazol-4-yl)phenoxy)methyl)azetidin-1-yl)carbonyl)-7-fluoro-2H-1,4-benzoxazin-3(4H)-one], the inhibition at 10 µM is reported as 99%.
Compound `Cc1c(-c2cc(Cl)ccc2OCC2CN(C(=O)c3cc4c(cc3F)OCC(=O)N4)C2)cnn1C` [Example 266, 6-((3-((4-chloro-2-(1,5-dimethyl-1H-pyrazol-4-yl)phenoxy)methyl)azetidin-1-yl)carbonyl)-7-fluoro-2H-1,4-benzoxazin-3(4H)-one] has an inhibition at 10 µM of 99%.
In the case of `Cc1nn(C)c(C)c1-c1cc(Cl)ccc1OCC1CN(C(=O)c2cc3c(cc2F)OCC(=O)N3)C1` [Example 267, 6-((3-((4-chloro-2-(1,3,5-trimethyl-1H-pyrazol-4-yl)phenoxy)methyl)azetidin-1-yl)carbonyl)-7-fluoro-2H-1,4-benzoxazin-3(4H)-one], the inhibition at 10 µM is reported as 101%.
`Cc1nc(C)c(-c2cc(Cl)ccc2OCC2CN(C(=O)c3cc4c(cc3F)OCC(=O)N4)C2)s1` [Example 268, 6-((3-((4-chloro-2-(2,4-dimethyl-1,3-thiazol-5-yl)phenoxy)methyl)azetidin-1-yl)carbonyl)-7-fluoro-2H-1,4-benzoxazin-3(4H)-one] gave an inhibition at 10 µM of 101%.
`Cc1ccc(OCC2CN(C(=O)c3cc4c(cc3F)OCC(=O)N4)C2)cc1F` [Example 269, 7-fluoro-6-((3-((3-fluoro-4-methylphenoxy)methyl)azetidin-1-yl)carbonyl)-2H-1,4-benzoxazin-3(4H)-one] gave an inhibition at 10 µM of 101%.
With `O=C1COc2cc(F)c(C(=O)N3CC(COc4ccc(OC(F)F)cc4)C3)cc2N1` [Example 270, 6-((3-((4-(difluoromethoxy)phenoxy)methyl)azetidin-1-yl)carbonyl)-7-fluoro-2H-1,4-benzoxazin-3(4H)-one] the inhibition at 10 µM was 101%.
Compound `O=C1COc2cc(F)c(C(=O)N3CC(COCc4ccccc4)C3)cc2N1` [Example 271, 6-((3-((benzyloxy)methyl)azetidin-1-yl)carbonyl)-7-fluoro-2H-1,4-benzoxazin-3(4H)-one] has an inhibition at 10 µM of 95%.
`O=C1COc2cc(F)c(C(=O)N3CC(COCc4ccc5scnc5c4)C3)cc2N1` [Example 272, 6-((3-((1,3-benzothiazol-5-ylmethoxy)methyl)azetidin-1-yl)carbonyl)-7-fluoro-2H-1,4-benzoxazin-3(4H)-one] was tested, and the inhibition at 10 µM was 100%.
`O=C1COc2cc(F)c(C(=O)N3CC(COc4ccc5c(c4)OCC5)C3)cc2N1` [Example 273, 6-((3-((2,3-dihydro-1-benzofuran-6-yloxy)methyl)azetidin-1-yl)carbonyl)-7-fluoro-2H-1,4-benzoxazin-3(4H)-one] was tested, and the inhibition at 10 µM was 101%.
`O=C1COc2cc(F)c(C(=O)N3CCC(COc4cccn5nccc45)CC3)cc2N1` [Example 274, 7-fluoro-6-((4-((pyrazolo[1,5-a]pyridin-4-yloxy)methyl)piperidin-1-yl)carbonyl)-2H-1,4-benzoxazin-3(4H)-one] was tested, and the inhibition at 10 µM was 102%.
